# Test results from patent publication US20230374015A1, “INHIBITORS OF FIBROBLAST GROWTH FACTOR RECEPTOR KINASES” (Kinnate Biopharma Inc., priority 2020, published 2023).
# pIC50: −log10 of the molar value.
# Biological target: FGFR2 (Homo sapiens, UniProt P21802)
# Assay: FGFR2 Kinase Protocol - Condition 2 (Reaction Biology HotSpot radiometric kinase assay, no preincubation)
# Assay type: biochemical
# Conditions: poly[Glu:Tyr] (4:1) 0.2 mg/ml, ATP 100 microM, 2 hr room temperature
# In short: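 Ten-point, 3-fold compound dilutions were tested against wildtype or V564F FGFR2 with 100 µM ATP (33P-labelled), no preincubation, and 0.2 mg/ml poly[Glu:Tyr] (4:1) substrate. After 2 hr at room temperature, incorporation was read on P81 filter paper; IC50 fitted from activity remaining relative to vehicle.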
# FGFR2, sequence (P21802 22-821): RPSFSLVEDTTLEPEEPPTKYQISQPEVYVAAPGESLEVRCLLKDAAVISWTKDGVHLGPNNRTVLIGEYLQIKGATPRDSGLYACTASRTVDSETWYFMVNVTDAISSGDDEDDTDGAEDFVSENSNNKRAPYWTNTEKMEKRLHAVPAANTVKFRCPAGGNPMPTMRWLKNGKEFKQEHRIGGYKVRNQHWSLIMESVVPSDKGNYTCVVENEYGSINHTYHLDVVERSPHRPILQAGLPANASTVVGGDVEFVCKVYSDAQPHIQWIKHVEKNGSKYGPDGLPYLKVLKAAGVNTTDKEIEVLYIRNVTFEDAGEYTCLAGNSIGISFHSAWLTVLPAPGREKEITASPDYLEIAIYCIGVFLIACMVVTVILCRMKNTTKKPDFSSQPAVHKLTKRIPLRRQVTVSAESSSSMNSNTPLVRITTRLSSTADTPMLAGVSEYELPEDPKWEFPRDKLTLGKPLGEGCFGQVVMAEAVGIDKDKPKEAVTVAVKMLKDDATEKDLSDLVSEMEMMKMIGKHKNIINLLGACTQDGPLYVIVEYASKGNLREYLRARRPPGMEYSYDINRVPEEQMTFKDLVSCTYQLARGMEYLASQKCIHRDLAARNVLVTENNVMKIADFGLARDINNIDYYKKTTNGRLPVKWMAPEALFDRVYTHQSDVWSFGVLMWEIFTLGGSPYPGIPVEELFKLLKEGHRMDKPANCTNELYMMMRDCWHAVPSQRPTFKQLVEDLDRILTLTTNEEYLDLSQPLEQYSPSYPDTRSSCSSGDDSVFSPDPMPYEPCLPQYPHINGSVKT
row,Compound,pIC50
1,"C=CC(=O)N1C[C@@H](n2cc(C#Cc3cc4ncn(C)c4cc3F)c3c(N)ncnc32)C[C@@H]1COC(F)(F)F [Example 67, 1-((2R,4S)-4-(4-Amino-5-((6-fluoro-1-methyl-1H-benzo[d]imidazol-5-yl)ethynyl)-7H-pyrrolo[2,3-d]pyrimidin-7-yl)-2-((trifluoromethoxy)methyl)pyrrolidin-1-yl)prop-2-en-1-one]",≥ 7.00
2,"C=CC(=O)N1C[C@@H](n2nc(C#Cc3cc4ncn(CC)c4c(F)c3Cl)c3c(N)nccc32)C[C@@H]1CC#N [Example 162, 2-[(2R,4S)-4-{4-Amino-3-[2-(6-chloro-1-ethyl-7-fluoro-1,3-benzodiazol-5-yl)ethynyl]pyrazolo[4,3-c]pyridin-1-yl}-1-(prop-2-enoyl)pyrrolidin-2-yl]acetonitrile]",≥ 7.00
3,"C=CC(=O)N1C[C@@H](n2nc(C#Cc3cc4ncn(C5CC5)c4cc3F)c3c(N)ncnc32)C[C@@H]1COC [Example 108, 1-[(2R,4S)-4-[4-Amino-3-[2-(1-cyclopropyl-6-fluoro-1,3-benzodiazol-5-yl)ethynyl]pyrazolo[3,4-d]pyrimidin-1-yl]-2-(methoxymethyl)pyrrolidin-1-yl]prop-2-en-1-one]",≥ 7.00
4,"C=CC(=O)N1C[C@@H](n2nc(C#Cc3cc4ncn(C)c4c(F)c3F)c3c(N)ncnc32)C[C@@H]1COC [Example 120, 1-((2R,4S)-4-(4-Amino-3-((6,7-difluoro-1-methyl-1H-benzo[d]imidazol-5-yl)ethynyl)-1H-pyrazolo[3,4-d]pyrimidin-1-yl)-2-(methoxymethyl)pyrrolidin-1-yl)prop-2-en-1-one]",≥ 7.00
5,"C=CC(=O)N1C[C@@H](n2cc(C#Cc3c(Cl)cc4c(ncn4C)c3F)c3c(N)ncnc32)C[C@@H]1COC [Example 106, 1-[(2R,4S)-4-[4-Amino-5-[2-(6-chloro-4-fluoro-1-methyl-1,3-benzodiazol-5-yl)ethynyl]pyrrolo[2,3-d]pyrimidin-7-yl]-2-(methoxymethyl)pyrrolidin-1-yl]prop-2-en-1-one]",≥ 7.00
6,"C=CC(=O)N1CC[C@H](n2nc(C#Cc3cc4ncn(C)c4cc3F)c3c(N)nccc32)C1 [Example 141, 1-[(3S)-3-{4-Amino-3-[2-(6-fluoro-1-methyl-1,3-benzodiazol-5-yl)ethynyl]pyrazolo[4,3-c]pyridin-1-yl}pyrrolidin-1-yl]prop-2-en-1-one]",≥ 7.00
7,"C=CC(=O)N1CC[C@H](n2nc(C#Cc3cc4ncn(CC)c4cc3F)c3c(N)nccc32)C1 [Example 150, 1-[(3S)-3-{4-Amino-3-[2-(1-ethyl-6-fluoro-1,3-benzodiazol-5-yl)ethynyl]pyrazolo[4,3-c]pyridin-1-yl}pyrrolidin-1-yl]prop-2-en-1-one]",≥ 7.00
8,"C=CC(=O)N1C[C@@H](n2nc(C#Cc3cc4ncn(C)c4cc3F)c3c(N)ncnc32)C[C@@H]1COC(F)(F)F [Example 57, 1-[(2R,4S)-4-[4-Amino-3-[2-(6-fluoro-1-methyl-1,3-benzodiazol-5-yl)ethynyl]pyrazolo[3,4-d]pyrimidin-1-yl]-2-[(trifluoromethoxy)methyl]pyrrolidin-1-yl]prop-2-en-1-one]",≥ 7.00
9,"C=CC(=O)N1C[C@@H](n2nc(C#Cc3cc4nc(C)[nH]c4cc3Cl)c3c(N)ncnc32)C[C@@H]1COC [Example 99, 1-[(2R,4S)-4-[4-Amino-3-[2-(6-chloro-2-methyl-1H-1,3-benzodiazol-5-yl)ethynyl]pyrazolo[3,4-d]pyrimidin-1-yl]-2-(methoxymethyl)pyrrolidin-1-yl]prop-2-en-1-one]",≥ 7.00
10,"C=CC(=O)N1C[C@@H](n2nc(C#Cc3cc4ncn(C5CC5)c4cc3Cl)c3c(N)ncnc32)C[C@@H]1COC [Example 126, 1-[(2R,4S)-4-[4-Amino-3-[2-(6-chloro-1-cyclopropyl-1,3-benzodiazol-5-yl)ethynyl]pyrazolo[3,4-d]pyrimidin-1-yl]-2-(methoxymethyl)pyrrolidin-1-yl]prop-2-en-1-one]",≥ 7.00
11,"C=CC(=O)N1C[C@@H](n2cc(C#Cc3cc4nc(C)n(C)c4cc3Cl)c3c(N)ncnc32)C[C@@H]1COC [Example 101, 1-[(2R,4S)-4-[4-Amino-5-[2-(6-chloro-1,2-dimethyl-1,3-benzodiazol-5-yl)ethynyl]pyrrolo[2,3-d]pyrimidin-7-yl]-2-(methoxymethyl)pyrrolidin-1-yl]prop-2-en-1-one]",≥ 7.00
12,"C=CC(=O)N1C[C@@H](n2nc(C#Cc3ccc4c(c3)nc(C)n4CC)c3c(N)ncnc32)C[C@@H]1CC#N [Example 52, 2-((2R,4S)-1-acryloyl-4-(4-amino-3-((1-ethyl-2-methyl-1H-benzo[d]imidazol-5-yl)ethynyl)-1H-pyrazolo[3,4-d]pyrimidin-1-yl)pyrrolidin-2-yl)acetonitrile]",≥ 7.00
13,"C=CC(=O)N1C[C@@H](n2cc(C#Cc3c(F)cc4c(ncn4C)c3F)c3c(N)ncnc32)C[C@@H]1COC(F)(F)F [Example 68, 1-((2R,4S)-4-(4-Amino-5-((4,6-difluoro-1-methyl-1H-benzo[d]imidazol-5-yl)ethynyl)-7H-pyrrolo[2,3-d]pyrimidin-7-yl)-2-((trifluoromethoxy)methyl)pyrrolidin-1-yl)prop-2-en-1-one]",≥ 7.00
14,"C=CC(=O)N1CC[C@H](n2nc(C#Cc3c(F)cc4c(ncn4C4CC4)c3F)c3c(N)ncnc32)C1 [Example 195, 1-[(3S)-3-{4-Amino-3-[2-(1-cyclopropyl-4,6-difluoro-1,3-benzodiazol-5-yl)ethynyl]pyrazolo[3,4-d]pyrimidin-1-yl}pyrrolidin-1-yl]prop-2-en-1-one]",≥ 7.00
15,"C=CC(=O)N1CC[C@H](n2nc(C#Cc3cc4ncn(C)c4c(F)c3Cl)c3c(N)ncnc32)C1 [Example 145, (S)-1-(3-(4-Amino-3-((6-chloro-7-fluoro-1-methyl-1H-benzo[d]imidazol-5-yl)ethynyl)-1H-pyrazolo[3,4-d]pyrimidin-1-yl)pyrrolidin-1-yl)prop-2-en-1-one]",≥ 7.00
16,"C=CC(=O)N1C[C@@H](n2nc(C#Cc3c(Cl)cc4c(ncn4C)c3F)c3c(N)ncnc32)C[C@@H]1COC [Example 104, 1-[(2R,4S)-4-[4-Amino-3-[2-(6-chloro-4-fluoro-1-methyl-1,3-benzodiazol-5-yl)ethynyl]pyrazolo[3,4-d]pyrimidin-1-yl]-2-(methoxymethyl)pyrrolidin-1-yl]prop-2-en-1-one]",≥ 7.00
17,"C=CC(=O)N1C[C@@H](n2nc(C#Cc3cc4ncn(C)c4cc3F)c3c(N)ncnc32)C[C@@H]1CF [Example 184, 1-[(2R,4S)-4-{4-Amino-3-[2-(6-fluoro-1-methyl-1,3-benzodiazol-5-yl)ethynyl]pyrazolo[3,4-d]pyrimidin-1-yl}-2-(fluoromethyl)pyrrolidin-1-yl]prop-2-en-1-one]",≥ 7.00

# Same assay, conditions: poly[Glu:Tyr] (4:1) 0.2 mg/ml, ATP 100 microM, 2 hr room temperature, given as numeric bound
row,Compound,pIC50
1,"C=CC(=O)N1C[C@H](c2nc(C#Cc3cc4ncn(C5CC5)c4cc3F)c3c(N)ncnn23)C[C@@H]1COC [Example 198, 1-[(2R,4R)-4-{4-Amino-5-[2-(1-cyclopropyl-6-fluoro-1,3-benzodiazol-5-yl)ethynyl]imidazo[4,3-f][1,2,4]triazin-7-yl}-2-(methoxymethyl)pyrrolidin-1-yl]prop-2-en-1-one]",< 6.30
2,"C=CC(=O)N1CC[C@H](c2nc(C#Cc3cc4ncn(C5CC5)c4cc3F)c3c(N)ncnn23)C1 [Example 200, (S)-1-(3-(4-Amino-5-((1-cyclopropyl-6-fluoro-1H-benzo[d]imidazol-5-yl)ethynyl)imidazo[5,1-f][1,2,4]triazin-7-yl)pyrrolidin-1-yl)prop-2-en-1-one]",< 6.30
